ChEMBL document CHEMBL1124209, “Phosphonoformate and phosphonoacetate derivatives of 5-substituted 2'-deoxyuridines: synthesis and antiviral activity” (1988)
In brackets after ≈: the same amount, converted by molar mass.

Experiments:
Type in all cases: functional
[1] = test system: Human alphaherpesvirus 1; test: Minimum inhibitory concentration causing 25% inhibition of cytopathic effect induced by Herpes simplex virus(HSV) -1 (thymidine kinase deficient) in HEp-2 cells
[2] = organism: Oryctolagus cuniculus; test: Minimum cytotoxic concentration causing toxic effects on uninfected cells in rabbit
[3] = test system: Human alphaherpesvirus 2; test: Minimum inhibitory concentration causing 25% inhibition of cytopathic effect induced by Herpes simplex virus(HSV) -2 (thymidine kinase deficient) in vero cells
[4] = test system: Human alphaherpesvirus 1; test: Minimum inhibitory concentration causing 25% inhibition of cytopathic effect induced by Herpes simplex virus(HSV) -1 (Brand) in HEp-2 cells
[5] = test system: Human alphaherpesvirus 1; test: Minimum inhibitory concentration causing 25% inhibition of cytopathic effect induced by Herpes simplex virus-1 (Brand) in vero cells
[6] = test system: Human alphaherpesvirus 1; test: Minimum inhibitory concentration causing 25% inhibition of cytopathic effect induced by herpes simplex virus (HSV)-1 (K979) in vero cells.
[7] = test system: Human alphaherpesvirus 1; test: Minimum inhibitory concentration causing 25% inhibition of cytopathic effect induced by Herpes simplex virus-1 (K979) in HEp-2 cells
[8] = test system: Human alphaherpesvirus 1; test: Minimum inhibitory concentration causing 25% inhibition of cytopathic effect induced by Herpes simplex virus(HSV) -1 (thymidine kinase deficient) in vero cells
[9] = test system: Human alphaherpesvirus 2; test: Minimum inhibitory concentration causing 25% inhibition cytopathic effect induced by Herpes simplex virus(HSV) -2 (thymidine kinase deficient) in vero cells
[10] = test system: Human alphaherpesvirus 2; test: Minimum inhibitory concentration causing 25% inhibition of cytopathic effect induced by Herpes simplex virus(HSV) -2 (thymidine kinase deficient) in HEp-2 cells
[11] = test system: Human alphaherpesvirus 1; test: Minimum inhibitory concentration causing 25% inhibition cytopathic effect induced by Herpes simplex virus-1 (Brand) in HEp-2 cells
[12] = test system: Human alphaherpesvirus 1; test: Minimum inhibitory concentration causing 25% inhibition cytopathic effect induced by Herpes simplex virus(HSV) -1 (thymidine kinase deficient) in HEp-2 cells
[13] = test system: Human alphaherpesvirus 1; test: (§1) Minimum inhibitory concentration causing 50% inhibition of cytopathic effect induced by HSV-2 in PRK cells
[14] = test system: Human alphaherpesvirus 1; test: Minimum inhibitory concentration causing 50% inhibition of cytopathic effect induced by HSV-1 in PRK cells
[15] = test system: Mus musculus; test: Cumulative mortality in percent of HSV-1 (KOS strain) infected mice, after peroral administration of 100 mg/kg of compound; conditions: route oral
[16] = test system: Human alphaherpesvirus 1; test: Minimum inhibitory concentration causing 50% inhibition of cytopathic effect induced by HSV-1(thymidine kinase deficient) in PRK cells
[17] = organism: Oryctolagus cuniculus; test: Minimum cytotoxic concentration of compound causing toxic effects on uninfected cells
[18] = test system: Human alphaherpesvirus 1; test: Minimum inhibitory concentration of compound causing 50% inhibition of cytopathic effect induced by HSV-1 (thymidine kinase deficient) in PRK cells
[19] = test system: Human alphaherpesvirus 2; test: Minimum inhibitory concentration of compound causing 50% inhibition of cytopathic effect induced by HSV-2 in PRK cells
[20] = test system: Human alphaherpesvirus 1; test: Minimum inhibitory concentration of compound causing 50% inhibition of cytopathic effect induced by HSV-1 in PRK cells
[21] = test system: Human alphaherpesvirus 1; test: Mean survival time in HSV-1 infected mice, after intraperitoneal administration of 0.5 mg/kg of compound
[22] = test system: Human alphaherpesvirus 1; test: Cumulative mortality in percent of HSV-1 infected mice, after intraperitoneal administration of 0.5 mg/kg of compound
[23] = test system: Human alphaherpesvirus 1; test: Minimum inhibitory concentration of compound causing 50% inhibition of cytopathic effect induced by HSV-1(thymidine kinase deficient) in PRK cells
[24] = test system: Mus musculus; test: Mean duration of lesions in HSV-1 infected mice, after administration of 0.3 % of compound intracutaneously
[25] = test system: Human alphaherpesvirus 1; test: Cumulative mortality in percent of HSV-1 infected mice, after peroral administration of 5 mg/kg of compound; conditions: route oral
[26] = test system: Mus musculus; test: Cumulative lesions in HSV-1 infected mice, after administration of 0.1 % of compound intracutaneously
[27] = test system: Mus musculus; test: Cumulative lesions in HSV-1 infected mice, after administration of 0.3 % of compound intracutaneously
[28] = test system: Mus musculus; test: Mean duration of lesions in HSV-1 infected mice, after administration of 0.1 % of compound intracutaneously
[29] = test system: Human alphaherpesvirus 1; test: Mean survival time in HSV-1 infected mice, after peroral administration of 5 mg/kg of compound; conditions: route oral
[30] = test system: Human alphaherpesvirus 2; test: as §1
[31] = test system: Mus musculus; test: Cumulative mortality in percent of HSV-1 infected mice, after peroral administration of 100 mg/kg of compound; conditions: route oral
[32] = test system: Human alphaherpesvirus 1; test: Minimum inhibitory concentration causing 50% inhibition of cytopathic effect induced by HSV-1 (thymidine kinase deficient) in PRK cells
[33] = test system: Mus musculus; test: Cumulative mortality in percent of HSV-1 infected mice, after intraperitoneal administration of 25 mg/kg
[34] = test system: Mus musculus; test: Mean survival time in HSV-1 infected mice, after peroral administration of 100 mg/kg; conditions: route oral
[35] = test system: Mus musculus; test: Mean survival time in HSV-1 infected mice, after intraperitoneal administration of 25 mg/kg
[36] = test system: Human alphaherpesvirus 2; test: Minimum inhibitory concentration causing 25% inhibition cytopathic effect induced by Herpes simplex virus(HSV) -2 (thymidine kinase deficient) in HEp -2 cells

SMILES	MIC [1]	MTC [2]	MIC [3]	MIC [5]	MIC [6]	MIC [7]	MIC [8]	MIC [10]	MIC [11]	MIC [14]	MIC [30]	other results
COP(=O)(CC(=O)OC[C@H]1O[C@@H](n2cc(I)c(=O)[nH]c2=O)C[C@@H]1O)OC	> 198 µM	655 µM	59.5 µM (≈ 30 µg/mL)	0.6 µM (≈ 0.303 µg/mL)	5.9 µM (≈ 2.97 µg/mL)	198 µM (≈ 99.8 µg/mL)	2 µM (≈ 1.01 µg/mL)	–	–	–	–	MIC [4]: 0.2 µM (≈ 0.101 µg/mL)
CCOC(=O)P(=O)(OC)OC[C@H]1O[C@@H](n2cc(I)c(=O)[nH]c2=O)C[C@@H]1O (stereo partly specified)	–	198 µM	–	0.6 µM (≈ 0.303 µg/mL)	5.9 µM (≈ 2.97 µg/mL)	5.9 µM (≈ 2.97 µg/mL)	19.8 µM (≈ 9.98 µg/mL)	5.9 µM (≈ 2.97 µg/mL)	2 µM (≈ 1.01 µg/mL)	–	–	MIC [9]: 5.9 µM (≈ 2.97 µg/mL); MIC [12]: 2 µM (≈ 1.01 µg/mL)
CCOC(=O)CP(=O)(O)OC[C@H]1O[C@@H](n2cc(/C=C/Br)c(=O)[nH]c2=O)C[C@@H]1O	–	>=828 uM	–	–	–	–	–	–	–	41.4 µM (≈ 20 µg/mL)	–	MIC [13]: > 828 µM; CMP [15]: 80; MIC [16]: > 828 µM
O=c1[nH]c(=O)n([C@H]2C[C@H](O)[C@@H](CO)O2)cc1I [IDOXURIDINE]	–	281 µM	–	0.3 µM (≈ 0.106 µg/mL)	2.8 µM (≈ 0.991 µg/mL)	0.8 µM (≈ 0.283 µg/mL)	8.4 µM (≈ 2.97 µg/mL)	8.4 µM (≈ 2.97 µg/mL)	0.8 µM (≈ 0.283 µg/mL)	–	–	MIC [9]: > 281 µM; MIC [12]: 0.8 µM (≈ 0.283 µg/mL)
O=C(O)CP(=O)(O)O [FOSFONET]	214 µM (≈ 30 µg/mL)	2.356 µM	71.4 µM (≈ 10 µg/mL)	71.4 µM (≈ 10 µg/mL)	71.4 µM (≈ 10 µg/mL)	71.4 µM (≈ 10 µg/mL)	71.4 µM (≈ 10 µg/mL)	214 µM (≈ 30 µg/mL)	214 µM (≈ 30 µg/mL)	–	–	MTC [17]: >2856 µM; MIC [18]: 286 µM (≈ 40 µg/mL); MIC [19]: 143 µM (≈ 20 µg/mL); MIC [20]: 286 µM (≈ 40 µg/mL)
O=c1[nH]c(=O)n([C@H]2C[C@H](O)[C@@H](CO)O2)cc1CCCl	–	1127 µM	–	0.03 µM (≈ 0.00872 µg/mL)	102 µM (≈ 29.7 µg/mL)	10.2 µM (≈ 2.97 µg/mL)	34.2 µM (≈ 9.94 µg/mL)	> 342 µM	0.1 µM (≈ 0.0291 µg/mL)	–	–	MIC [9]: > 342 µM; MST [21]: 16.7 days; CMP [22]: 35; MIC [23]: > 1370 µM; MDL [24]: 0.9 days; CMP [25]: 10; MTC [17]: >1366 µM; MIC [19]: 34.2 µM (≈ 9.94 µg/mL); lesions [26]: 40; MIC [20]: 0.3 µM (≈ 0.0872 µg/mL); MIC [12]: > 342 µM; lesions [27]: 17; MDL [28]: 2.4 days; MST [29]: 19 days
O=c1[nH]c(=O)n([C@H]2C[C@H](O)[C@@H](CO)O2)cc1/C=C/Br [BRIVUDINE]	–	>1302 µM	–	–	–	–	–	–	–	0.07 µM (≈ 0.0233 µg/mL)	32.6 µM (≈ 10.9 µg/mL)	MIC [16]: 1300 µM (≈ 434 µg/mL); CMP [31]: 30
COC(=O)P(=O)(O)OC[C@H]1O[C@@H](n2cc(/C=C\Br)c(=O)[nH]c2=O)C[C@@H]1O	–	>=87.9 uM	–	–	–	–	–	–	–	1.5 µM (≈ 0.683 µg/mL)	> 87.9 µM	CMP [15]: 50; MIC [32]: > 87.9 µM
Nc1nc2c(ncn2COCCO)c(=O)[nH]1 [ACYCLOVIR]	440 µM (≈ 99.1 µg/mL)	440 µM	132 µM (≈ 29.7 µg/mL)	0.01 µM (≈ 0.00225 µg/mL)	1.3 µM (≈ 0.293 µg/mL)	13.2 µM (≈ 2.97 µg/mL)	44 µM (≈ 9.91 µg/mL)	440 µM (≈ 99.1 µg/mL)	4.4 µM (≈ 0.991 µg/mL)	–	–	CMP [33]: 15; MST [34]: 18.9 days; MST [35]: 18.6 days; CMP [31]: 10
CCOC(=O)P(=O)(O)OC[C@H]1O[C@@H](n2cc(/C=C\Br)c(=O)[nH]c2=O)C[C@@H]1O	–	>=81.1 uM	–	–	–	–	–	–	–	4.1 µM (≈ 1.92 µg/mL)	> 81.1 µM	MIC [16]: > 81.1 µM; CMP [31]: 70
O=C(O)P(=O)(O)O [FOSCARNET]	794 µM (≈ 100 µg/mL)	2.619 µM	79.4 µM (≈ 10 µg/mL)	238 µM (≈ 30 µg/mL)	238 µM (≈ 30 µg/mL)	238 µM (≈ 30 µg/mL)	79.4 µM (≈ 10 µg/mL)	–	794 µM (≈ 100 µg/mL)	238 µM (≈ 30 µg/mL)	159 µM (≈ 20 µg/mL)	MTC [17]: >3174 µM; MIC [32]: 317 µM (≈ 39.9 µg/mL); MIC [36]: 238 µM (≈ 30 µg/mL)
